What follows are compounds tested against T1, human OX2R (Homo sapiens, UniProt O43614) (assay: IPOne (IP-1) orexin receptor agonist assay in CHO cells expressing human OX2R). Settings: CHO, hOX2R IP-One; percentage of mean max effect of a reference compound at 1 uM with 100% activity.
T1 sequence (O43614 1-444): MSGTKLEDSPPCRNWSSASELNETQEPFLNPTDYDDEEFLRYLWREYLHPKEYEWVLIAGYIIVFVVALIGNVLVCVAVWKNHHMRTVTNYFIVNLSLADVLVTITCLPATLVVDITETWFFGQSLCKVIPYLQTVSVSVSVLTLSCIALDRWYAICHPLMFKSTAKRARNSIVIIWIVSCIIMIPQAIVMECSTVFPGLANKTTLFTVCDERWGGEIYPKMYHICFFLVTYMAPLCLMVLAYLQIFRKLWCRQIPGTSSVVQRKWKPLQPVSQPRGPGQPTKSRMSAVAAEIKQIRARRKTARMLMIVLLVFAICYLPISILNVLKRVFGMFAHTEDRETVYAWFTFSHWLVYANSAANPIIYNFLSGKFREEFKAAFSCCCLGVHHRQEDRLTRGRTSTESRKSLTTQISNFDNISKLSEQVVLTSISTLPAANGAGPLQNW
`C[C@@H]1C[C@H](NS(C)(=O)=O)C2COC3CCC(CC3)c3ccc(F)c(n3)NCCCOC(=O)N21` (stereo partly drawn) [Example 93, N-((2^1S,2^4S,5^2R,5^3S,5^5R)-1^5-fluoro-5^5-methyl-6-oxo-3,7-dioxa-11-aza-1(2,6)-pyridina-5(2,1)-pyrrolidina-2(1,4)-cyclohexanacycloundecaphane-5^3-yl)methanesulfonamide] was tested, and the Emax was 103%. In the case of `C[C@@H]1C[C@H](NS(C)(=O)=O)C2COC3CCC(CC3)c3nc(ccc3C(F)(F)F)N(C)CCCOC(=O)N21` (stereo partly drawn) [Example 94, N-((2^1S,2^4S,5^2R,5^3S,5^5R)-5^5,1^1-dimethyl-6-oxo-1^3-(trifluoromethyl)-3,7-dioxa-11-aza-1(2,6)-pyridina-5(2,1)-pyrrolidina-2(1,4)-cyclohexanacycloundecaphane-5^3-yl)methanesulfonamid], the Emax is reported as 37.5%. With `COc1cc2nc(c1)N(C)CCCOC(=O)N1C(COC3CCC2CC3)[C@@H](NS(C)(=O)=O)C[C@H]1C` (stereo partly drawn) [Example 95, N-((2^1S,2^4S,5^2R,5^3S,5^5R)-1^4-methoxy-5^5,1^1-dimethyl-6-oxo-3,7-dioxa-11-aza-1(2,6)-pyridina-5(2,1)-pyrrolidina-2(1,4)-cyclohexanacycloundecaphane-5^3-yl)methanesulfonamide] the Emax was 98.4%. In the case of `CS(=O)(=O)N[C@H]1C[C@@H](CO)N2C(=O)OCCOc3ccc(C(F)(F)F)c(n3)[C@H]3CC[C@H](CC3)OC[C@@H]12` [Example 96, N-((2^1R,2^4R,5^2R,5^3S,5^5S)-5^5-(hydroxymethyl)-6-oxo-1^3-(trifluoromethyl)-3,7,10-trioxa-1(2,6)-pyridina-5(2,1)-pyrrolidina-2(1,4)-cyclohexanacyclodecaphane-5^3-yl)methanesulfonamide], the Emax is reported as 100%. `CS(=O)(=O)N[C@H]1C[C@@H](CO)N2C(=O)OCCCOc3cc(C(F)F)cc(n3)C3CCC(CC3)OCC12` (stereo partly drawn) [Example 97, N-((2^1S,2^4S,5^2R,5^3S,5^5S)-1^4-(difluoromethyl)-5^5-(hydroxymethyl)-6-oxo-3,7,11-trioxa-1(2,6)-pyridina-5(2,1)-pyrrolidina-2(1,4)-cyclohexanacycloundecaphane-5^3-yl)methanesulfonamide] was tested, and the Emax was 98.4%. Work on `CN(C)C[C@@H]1C[C@H](NS(C)(=O)=O)[C@@H]2CO[C@H]3CC[C@H](CC3)c3nc(ccc3C(F)(F)F)OCCOC(=O)N12` [Example 98, N-((2^1R,2^4R,5^2R,5^3S,5^5S)-5^5-((dimethylamino)methyl)-6-oxo-1^3-(trifluoromethyl)-3,7,10-trioxa-1(2,6)-pyridina-5(2,1)-pyrrolidina-2(1,4)-cyclohexanacyclodecaphane-5^3-yl)methanesulfonamide] yielded an Emax of 100%. With `CS(=O)(=O)N[C@H]1C[C@@H](CC(N)=O)N2C(=O)OCCOc3ccc(C(F)(F)F)c(n3)C3CCC(CC3)OCC12` (stereo partly drawn) [Example 99, 2-((2^1R,2^4R,5^2R,5^3S,5^5S)-5^3-(methylsulfonamido)-6-oxo-1^3-(trifluoromethyl)-3,7,10-trioxa-1(2,6)-pyridina-5(2,1)-pyrrolidina-2(1,4)-cyclohexanacyclodecaphane-5^5-yl)acetamide] the Emax was 100%. `CN(C)C[C@@H]1C[C@H](NS(C)(=O)=O)C2COC3CCC(CC3)c3cc(C(F)F)cc(n3)OCCCOC(=O)N21` (stereo partly drawn) [Example 100, N-((2^1S,2^4S,5^2R,5^3S,5^5S)-1^4-(difluoromethyl)-5^5-((dimethylamino)methyl)-6-oxo-3,7,11-trioxa-1(2,6)-pyridina-5(2,1)-pyrrolidina-2(1,4)-cyclohexanacycloundecaphane-5^3-yl)methanesulfonamide] gave an Emax of 102%. With `CNC[C@@H]1C[C@H](NS(C)(=O)=O)C2COC3CCC(CC3)c3cc(C(F)F)cc(n3)OCCCOC(=O)N21` (stereo partly drawn) [Example 101, N-((2^1S,2^4S,5^2R,5^3S,5^5S)-1^4-(difluoromethyl)-5^5-((methylamino)methyl)-6-oxo-3,7,11-trioxa-1(2,6)-pyridina-5(2,1)-pyrrolidina-2(1,4)-cyclohexanacycloundecaphane-5^3-yl)methanesulfonamide] the Emax was 102%. For `CS(=O)(=O)N[C@H]1C[C@@H](CC(N)=O)N2C(=O)OCCCOc3cc(C(F)F)cc(n3)C3CCC(CC3)OCC12` (stereo partly drawn) [Example 102, 2-((2^1S,2^4S,5^2R,5^3S,5^5S)-1^4-(difluoromethyl)-5^3-(methylsulfonamido)-6-oxo-3,7,11-trioxa-1(2,6)-pyridina-5(2,1)-pyrrolidina-2(1,4)-cyclohexanacycloundecaphane-5^5-yl)acetamide], the Emax was 99.8%. `COc1cc2nc(c1)C1CCC(CC1)OCC1[C@@H](NS(=O)(=O)CF)C[C@@H](C)N1C(=O)OCCO2` (stereo partly drawn) [Example 104, 1-fluoro-N-((2^1R,2^4R,5^2R,5^3S,5^5R)-1^4-methoxy-5^5-methyl-6-oxo-3,7,10-trioxa-1(2, 6)-pyridina-5(2,1)-pyrro-lidina-2(1,4)-cyclohexana-cyclodecaphane-5^3-yl)methanesulfonamide] gave an Emax of 102%. For `COc1cc2nc(c1)C1CCC(CC1)OCC1[C@@H](NS(=O)(=O)C(F)F)C[C@@H](C)N1C(=O)OCCO2` (stereo partly drawn) [Example 105, 1,1-difluoro-N-((2^1R,2^4R,5^2R,5^3S,5^5R)-14-methoxy-5^5-methyl-6-oxo-3,7,10-trioxa-1(2,6)-pyridina-5(2,1)-pyrrolidina-2(1,4)-cyclohex-anacyclodecaphane-5^3-yl)methanesulfonamide], the Emax was 99.7%. For `CCS(=O)(=O)N[C@H]1C[C@@H](C)N2C(=O)OCCCOc3cc(OC)cc(n3)C3CCC(CC3)OCC12` (stereo partly drawn) [Example 106, N-((2^1R,2^4R,5^2R,5^3S,5^5R)-1^4-methoxy-5^5-methyl-6-oxo-3,7,11-trioxa-1(2,6)-pyridina-5(2,1)-pyrrolidina-2(1,4)-cyclohex-anacycloundecaphane-5^3-yl)ethanesulfonamide], the Emax was 97.3%. Work on `COc1cc2nc(c1)C1CCC(CC1)OCC1[C@@H](NS(=O)(=O)CF)C[C@@H](C)N1C(=O)OCCCO2` (stereo partly drawn) [Example 107, 1-fluoro-N-((2^1R,2^4R,5^2R, 5^3S,5^5R)-1^4-methoxy-5^5-methyl-6-oxo-3,7,11-trioxa-1(2,6)-pyridina-5(2,1)-pyrrolidina-2(1,4)-cyclohexanacycloundecaphane-5^3-yl)methanesulfonamide] yielded an Emax of 101%. With `COc1cc2nc(c1)C1CCC(CC1)OCC1[C@@H](NS(=O)(=O)C(F)F)C[C@@H](C)N1C(=O)OCCCO2` (stereo partly drawn) [Example 108, 1,1-difluoro-N-((2^1R,2^4R,5^2R,5^3S,5^5R)-14-methoxy-5^5-methyl-6-oxo-3,7,11-trioxa-1(2,6)-pyridina-5(2,1)-pyrrolidina-2(1,4)-cyclohexanacycloundecaphane-5^3-yl)methanesulfonamide] the Emax was 104%. `C[C@@H]1C[C@H](NS(C)(=O)=O)[C@@H]2COC3CCC(CC3)c3ccc(F)c(n3)CCCCOC(=O)N12` [Example 110, N-((2^1S,2^4S,5^2R,5^3S,5^5R)-1^5-fluoro-5^5-methyl-6-oxo-3,7-dioxa-1(2,6)-pyridina-5(2,1)-pyrrolidina-2(1,4)-cyclohexanacycloundecaphane-5^3-yl)methanesulfonamide] gave an Emax of 102%. `COc1cc2nc(c1)C1CCC(CC1)OC[C@H]1[C@@H](NS(C)(=O)=O)C[C@@H](C)N1C(=O)OCCCC2` [Example 111, N-((2^1S,2^4S,5^2R,5^3S,5^5R)-1^4-methoxy-5^5-methyl-6-oxo-3,7-dioxa-1(2,6)-pyridina-5(2,1)-pyrrolidina-2(1,4)-cyclohexanacycloundecaphane-5^3-yl)methanesulfonamide] gave an Emax of 99.6%.

Same assay, conditions: hOX2R IP-One; percentage of mean max effect of a reference compound at 1 uM with 100% activity
For `CCS(=O)(=O)NC1CC(C)N2C(=O)OCCOc3cc(OC)cc(n3)C3CCC(CC3)OCC12` (stereo not drawn) [Example 103, N-((2^1R,2^4R,5^2R,5^3S,5^5R)-1^4-methoxy-5^5-methyl-6-oxo-3,7,10-trioxa-1(2,6)-pyridina-5(2,1)-pyrrolidina-2(1,4)-cyclohexanacyclodecaphane-5^3-yl)ethanesulfonamide], the “Emax (%)” value was 103.0%. With `CC1CC(NS(C)(=O)=O)C2COC3CCC(CC3)c3cc(C(F)(F)F)cc(n3)CCCCOC(=O)N12` (stereo not drawn) [Example 109, N-((2^1S,2^4S,5^2R,5^3S,5^5R)-5^5-methyl-6-oxo-14-(trifluoromethyl)-3,7-dioxa-1(2,6)-pyridina-5(2,1)-pyrrolidina-2(1,4)-cyclohexanacycloundecaphane-5^3-yl)methanesulfonamide] the “Emax (%)” value was 102.4%. “N-((2^1S,2^4S,5^2R,5^3S,5^5R)-1^5- fluoro-1^4-methoxy-5^5-methyl- 6-oxo-3,7,10-trioxa-1(2,6)- pyridina-5(2,1)-pyrrolidina- 2(1,4)-cyclohexanacyclode caphane-5^3-yl)methane sulfonamide [Example 74]” was tested, and the “Emax (%)” value was 110.2%. “N′-((2^1S,2^4S,5^2R,5^3S)-6-oxo-3,7-dioxa-5(2,1)-piperidina-1(1,2)-benzena-2(1,4)-cyclohexanacyclononaphane-5^3-yl)-N,N-dimethyl-sulfamide [Example 37]” was tested, and the “Emax (%)” value was 5.8%.
